Laboratory results published in ChEMBL document CHEMBL2176890, “2-(3-fluoro-4-methylsulfonylaminophenyl)propanamides as potent transient receptor potential vanilloid 1 (TRPV1) antagonists: structure-activity relationships of 2-amino derivatives in the N-(6-trifluoromethylpyridin-3-ylmethyl) C-region” (J Med Chem, 2012).
Calls of active or inactive are those of the source. No cut-off for these calls is given here.

Key:
[1] = target: T1, Transient receptor potential cation channel subfamily V member 1 (Homo sapiens, UniProt Q8NER1); assay: Antagonist activity at human TRPV1 expressed in CHOK1 cells assessed as inhibition of pH-induced activity by FLIPR assay; type: functional, cell-based, CHO-K1
[2] = target: T1, Transient receptor potential cation channel subfamily V member 1; assay: Antagonist activity at human TRPV1 expressed in CHOK1 cells assessed as inhibition of capsaicin-induced activity by FLIPR assay; type: functional, cell-based, CHO-K1
Rattus norvegicus [3] = assay: Toxicity in po dosed CCI-induced Sprague-Dawley rat neuropathic pain model assessed as decreased locomotion; type: organism-based; conditions: in vivo
Rattus norvegicus [4] = assay: Toxicity in po dosed CCI-induced Sprague-Dawley rat neuropathic pain model assessed as sedation; type: organism-based; conditions: in vivo
Rattus norvegicus [5] = assay: Analgesic activity in CCI-induced Sprague-Dawley rat neuropathic pain model assessed as reduction in paw withdrawal measured 30 mins after po administration; type: functional, organism-based
[6] = target: T1, Transient receptor potential cation channel subfamily V member 1; assay: Antagonist activity at human TRPV1 expressed in CHOK1 cells assessed as inhibition of N-acetyldopamine-induced activity after 5 mins by FLIPR assay; type: functional, cell-based, CHO-K1
[7] = target: T1, Transient receptor potential cation channel subfamily V member 1; assay: Antagonist activity at human TRPV1 expressed in CHOK1 cells assessed as inhibition of heat-induced activity after 5 mins by FLIPR assay; type: functional, cell-based, CHO-K1
Mus musculus [8] = assay: Inhibition of capsaicin-induced hypothermia in NMRI mouse at 0.3 mg/kg, po administered 15 mins prior challenge; type: functional, organism-based; parameters: dose 0.3 mg/kg
Rattus norvegicus [9] = assay: Analgesic activity in CCI-induced Sprague-Dawley rat neuropathic pain model assessed as reduction in paw withdrawal at 3.16 mg/kg, po after 45 mins; type: functional
Rattus norvegicus [10] = assay: Analgesic activity in CCI-induced Sprague-Dawley rat neuropathic pain model assessed as reduction in paw withdrawal measured 45 mins after po administration; type: functional
Mus musculus [11] = assay: Acute toxicity in C57BL/6J mouse assessed as hyperthermia at 1 mg/kg, po at 45 to 60 mins; conditions: in vivo
Mus musculus [12] = assay: Acute toxicity in TRPV1 knockout mouse assessed as hyperthermia at 1 mg/kg, po at 45 to 60 mins; conditions: in vivo

T1 sequence (Q8NER1 whole entry): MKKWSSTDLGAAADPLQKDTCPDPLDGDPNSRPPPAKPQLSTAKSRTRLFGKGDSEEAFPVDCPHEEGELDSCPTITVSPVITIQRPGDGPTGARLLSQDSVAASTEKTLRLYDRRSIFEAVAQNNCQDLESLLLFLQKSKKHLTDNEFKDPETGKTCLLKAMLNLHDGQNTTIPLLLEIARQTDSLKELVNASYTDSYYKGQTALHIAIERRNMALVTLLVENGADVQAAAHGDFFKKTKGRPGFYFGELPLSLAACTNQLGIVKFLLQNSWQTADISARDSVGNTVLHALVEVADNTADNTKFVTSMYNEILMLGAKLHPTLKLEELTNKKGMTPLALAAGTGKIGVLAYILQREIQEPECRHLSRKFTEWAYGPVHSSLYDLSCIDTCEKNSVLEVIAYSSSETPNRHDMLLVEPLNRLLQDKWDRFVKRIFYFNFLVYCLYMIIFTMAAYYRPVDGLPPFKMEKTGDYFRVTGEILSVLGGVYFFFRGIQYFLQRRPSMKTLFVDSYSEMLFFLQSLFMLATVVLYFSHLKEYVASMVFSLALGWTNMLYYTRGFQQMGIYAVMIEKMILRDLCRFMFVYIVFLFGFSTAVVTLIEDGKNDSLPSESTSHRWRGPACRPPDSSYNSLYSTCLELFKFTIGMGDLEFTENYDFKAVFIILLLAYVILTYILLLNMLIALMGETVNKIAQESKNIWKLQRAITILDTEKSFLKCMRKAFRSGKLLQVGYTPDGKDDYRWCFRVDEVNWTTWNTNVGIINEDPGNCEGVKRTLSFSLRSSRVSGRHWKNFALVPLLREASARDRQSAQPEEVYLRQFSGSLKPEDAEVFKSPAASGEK

Compound	IC50 ([1]; read-out: IC50) [nM]	Ki ([2]; read-out: Ki) [nM]	other results
CC(C(=O)NCc1ccc(C(F)(F)F)nc1N1CCN(c2ncccc2Cl)CC1)c1ccc(NS(C)(=O)=O)c(F)c1 (racemic)	117	–	–
CC(C(=O)NCc1ccc(C(F)(F)F)nc1N1CCC(Cc2cc(F)cc(F)c2)CC1)c1ccc(NS(C)(=O)=O)c(F)c1 (racemic)	24	0.4	–
C[C@H](C(=O)NCc1ccc(C(F)(F)F)nc1N1CCC[C@H]1CO)c1ccc(NS(C)(=O)=O)c(F)c1	–	–	IC50 ([1]; cho-k1): Not Active
C[C@H](C(=O)NCc1ccc(C(F)(F)F)nc1N1CCC[C@H]1C(=O)N(C)C)c1ccc(NS(C)(=O)=O)c(F)c1	–	–	IC50 ([1]; cho-k1): Not Active
O=C(/C=C/c1ccc(C(F)(F)F)nc1N1CCOCC1)Nc1ccc2cccnc2c1	116	1.2	–
CC(C(=O)NCc1ccc(C(F)(F)F)nc1NCc1cccnc1)c1ccc(NS(C)(=O)=O)c(F)c1 (racemic)	–	–	IC50 ([1]; cho-k1): Not Active; Ki ([2]; cho-k1): Not Active
CC(C(=O)NCc1ccc(C(F)(F)F)nc1N1CCN(c2ccc(C(F)(F)F)cc2)CC1)c1ccc(NS(C)(=O)=O)c(F)c1 (racemic)	117	2.3	–
CC(C(=O)NCc1ccc(C(F)(F)F)nc1N1CCC(O)CC1)c1ccc(NS(C)(=O)=O)c(F)c1 (racemic)	–	–	IC50 ([1]; cho-k1): Not Active; Ki ([2]; cho-k1): Not Active
CC(C(=O)NCc1ccc(C(F)(F)F)nc1N1CCC(Cc2ccc(F)c(F)c2)CC1)c1ccc(NS(C)(=O)=O)c(F)c1 (racemic)	30	0.2	–
O=C(/C=C/c1ccc(C(F)(F)F)nc1N1CCCCC1)Nc1ccc2cccnc2c1	–	4.4	IC50 ([1]; cho-k1): Not Active
CC1CCN(c2nc(C(F)(F)F)ccc2CNC(=O)[C@H](C)c2ccc(NS(C)(=O)=O)c(F)c2)CC1	254	9.8	–
CC(C)(C)c1ccc(CNC(=S)NCc2ccc(NS(C)(=O)=O)c(F)c2)cc1	–	26	IC50 ([1]; cho-k1): Not Active
C[C@H](C(=O)NCc1ccc(C(C)(C)C)cc1)c1ccc(NS(C)(=O)=O)c(F)c1	1210	20	Activity (Rattus norvegicus [3]): Non-toxic; Activity (Rattus norvegicus [4]): Non-toxic; Activity (Rattus norvegicus [5]): Active; Ki [6]: 6.6 nM; IC50 [7]: 174 nM
CC(C(=O)NCc1ccc(C(F)(F)F)nc1)c1ccc(NS(C)(=O)=O)c(F)c1 (racemic)	–	–	IC50 ([1]; cho-k1): Not Active
Cc1ccc(CC2CCN(c3nc(C(F)(F)F)ccc3CNC(=O)C(C)c3ccc(NS(C)(=O)=O)c(F)c3)CC2)cc1 (racemic)	17	0.2	–
CC1CCN(c2nc(C(F)(F)F)ccc2CNC(=O)C(C)c2ccc(NS(C)(=O)=O)c(F)c2)CC1 (racemic)	8.4	–	–
CC1CCC(Nc2nc(C(F)(F)F)ccc2CNC(=O)C(C)c2ccc(NS(C)(=O)=O)c(F)c2)CC1 (racemic)	1130	27.2	–
CC(C(=O)NCc1ccc(C(F)(F)F)nc1N1CCC(C(=O)c2ccc(F)cc2)CC1)c1ccc(NS(C)(=O)=O)c(F)c1 (racemic)	990	3.9	–
CC1CCN(c2nc(C(F)(F)F)ccc2CNC(=O)[C@@H](C)c2ccc(NS(C)(=O)=O)c(F)c2)CC1	6.3	0.2	Activity (Rattus norvegicus [3]): Non-toxic; Activity (Rattus norvegicus [4]): Non-toxic; Activity (Mus musculus [8]): Active; Emax at 3.16 mg/kg (Rattus norvegicus [9]): 60%; Activity (Rattus norvegicus [10]): Dose-dependent effect; ED50 (Rattus norvegicus [10]): 0.9 mg/kg; Ki [6]: 0.01 nM; IC50 [7]: 0.8 nM; Activity (Mus musculus [11]): Toxic; Activity (Mus musculus [12]): Non-toxic

Further lines, with some results ahead:

IC50 ([1]; read-out: IC50) [nM]	Ki ([2]; read-out: Ki) [nM]	Compound	other results
757	11	C[C@H](C(=O)NCc1ccc(C(F)(F)F)nc1N1CC[C@@H](NC(=O)OC(C)(C)C)C1)c1ccc(NS(C)(=O)=O)c(F)c1	–
737	7.1	C[C@H](C(=O)NCc1ccc(C(F)(F)F)nc1N1CC[C@H](NC(=O)OC(C)(C)C)C1)c1ccc(NS(C)(=O)=O)c(F)c1	–
46.7	–	C[C@H](C(=O)NCc1ccc(C(F)(F)F)nc1N1CCCCC1)c1ccc(NS(C)(=O)=O)c(F)c1	–
–	103	C[C@H](C(=O)NCc1ccc(C(F)(F)F)nc1N1CC[C@H](N(C)C)C1)c1ccc(NS(C)(=O)=O)c(F)c1	–
–	0.3	CC1CCCN1c1nc(C(F)(F)F)ccc1CNC(=O)[C@@H](C)c1ccc(NS(C)(=O)=O)c(F)c1 (stereo not given in full)	–
426	2.1	CC(C(=O)NCc1ccc(C(F)(F)F)nc1N1CCC(CN(C)C)CC1)c1ccc(NS(C)(=O)=O)c(F)c1 (racemic)	–
50	1.4	C[C@H](C(=O)NCc1ccc(C(F)(F)F)nc1N1CC[C@@H](OCc2ccccc2)C1)c1ccc(NS(C)(=O)=O)c(F)c1	–
209	2.6	C[C@H](C(=O)NCc1ccc(C(F)(F)F)nc1N1CCC[C@H]1C(=O)OC(C)(C)C)c1ccc(NS(C)(=O)=O)c(F)c1	–
–	101	C[C@H](C(=O)NCc1ccc(C(F)(F)F)nc1N1CC[C@@H](N(C)C)C1)c1ccc(NS(C)(=O)=O)c(F)c1	–
–	0.43	CC(C(=O)NCc1ccc(C(F)(F)F)nc1N1CCCCC1)c1ccc(NS(C)(=O)=O)c(F)c1 (racemic)	–
25.1	0.8	CC(C(=O)NCc1ccc(C(F)(F)F)nc1N1CCCCCC1)c1ccc(NS(C)(=O)=O)c(F)c1 (racemic)	–
